According to PMC12526212, “Novel Isolongifolenone-Based Caprolactam Derivatives as Potential Anticancer Agents via the p53/mTOR/Autophagy Pathway” (Molecules, 2025):

Key:
Type in all cases: cell-based, human
MCF-7 cells [1] = assay: Cell cycle assay (PI, flow cytometry); conditions: 0.5, 1.0, 2.0 µM, 24 h
Procedure: As a cell progresses into different cell cycle phases, its DNA content varies because of DNA synthesis (which is required to prepare additional chromosome copies prior to cell division). Consequently, a flow cytometric analysis of DNA content can provide information on the number of cells in different cell cycle phases.
For cell cycle analysis, MCF-7 cells were seeded at a density of 2 × 10^5 cells per well in 6-well plates. MCF-7 cells were treated with different concentrations of compound E10 for 24 h. After that, the cells were washed with PBS twice, collected by trypsin enzymic digestion and centrifugation, and the collected cells were subsequently fixed with 70% ice-cold ethanol overnight at 4 °C. The cells were stained with PI (50 μg/mL) the next day. The cell cycle distributions were measured through flow cytometry (BD), and the data were analyzed by Modfit 5.1 software.

MCF-7 cells [2] = assay: Intracellular ROS assay (DCFH-DA, flow cytometry); conditions: 24 h, compared to control
Procedure: Oxidative stress is known to increase intracellular reactive oxygen species (ROS) levels and to contribute to cell apoptosis and autophagy. To investigate whether E10 induced intracellular ROS accumulation, ROS levels in MCF-7 cells were determined by flow cytometric assay using DCFH-DA as a redox-sensitive probe.
For the detection of intracellular ROS levels, MCF-7 cells were seeded at a density of 5 × 10^5 cells per well in a 12-well plate and treated with different concentrations of compound E10 for 24 h. The cells were collected and stained with 5 μM of DCFH-DA dye (Yeasen, Shanghai, China, 50101ES01) in the incubator for 30 min. Flow cytometry (BD) detected the stained cell samples, and the data were analyzed using FlowJo software.

MCF-7 cells [3] = assay: MMP assay (JC-1, flow cytometry); conditions: 24 h
Procedure: If intracellular ROS levels rise above a certain threshold, the mitochondria may become damaged. […] In these experiments, MCF-7 cells were incubated with E10 for 24 h, and mitochondrial membrane potential (MMP) was then evaluated by flow cytometry using JC-1 as an indicator. […] These changes in the red/green fluorescence ratio are indicative of mitochondrial depolarization, a decrease in mitochondrial function, and potentially damage to mitochondria.
MCF-7 cells were treated with different concentrations of compound E10 for 24 h. After that, the cells were collected and stained with JC-1 (Yeasen, Shanghai, China, 40706ES60) for 15 min. The cell samples were detected by flow cytometry (BD) and the data were analyzed by flowjo 10.6 software.

MCF-7 cells [4] = assay: Monodansylcadaverine (MDC) staining assay for autophagy; conditions: 24 h, compared with control; 3-MA as co-treatment with E10
Procedure: To investigate whether E10 induced autophagy in MCF-7 cells, we performed Monodansylcadaverine (MDC) staining, transmission electron microscopy (TEM), and Western blot analysis to evaluate autophagy-related markers. MDC is a fluorescent probe commonly used to detect the formation of autophagic vacuoles, as it specifically labels autophagosomes.
MDC is a staining indicator for the formation of autophagosome. MCF-7 cells were seeded at a density of 2 × 10^5 cells per well in 6-well plates. MCF-7 cells were inoculated into a 6-well plate, and the cells were treated with E10 for 24 h. The treated cells were washed twice with buffer and then stained with MDC (Beijing Solarbio Science & Technology Co., Ltd., Beijing, China) for 40 min. The cells were then detected under a fluorescence microscope (Carl Zeiss, Jena, Germany).

MCF-7 cells [5] = assay: Western blotting of autophagy, AMPK-mTOR and apoptosis proteins
Procedure: MCF-7 exponentially growing cells were plated in 6-well plates (2 × 10^5 cells/well). Then, derivatives E10 (0.5, 1.0 and 2.0 μM) were added to the well. After incubation for an additional 48 h, the cell culture medium was removed, and the cells were washed twice with ice-cold PBS. Subsequently, the cells were lysed to extract the total protein and centrifuged at 12,000 rpm for 5 min at 4 °C using lysis buffer (Beyotime, Shanghai, China, Cat. # P0013E). All protein concentrations were determined using a BCA kit. Equal amounts of protein (20–30 µg per lane) were loaded onto the gel. An equal amount of protein was analyzed using 12% SDS-PAGE gels and transferred to Hybond-P membrane containing polyvinylidene difluoride (PVDF). The membranes were then blocked with BSA for 2 h at room temperature and incubated with primary antibodies against p-mTOR (ImmunoWay Biotechnology, Beijing, China, YP1444, 1:5000), P62 (Proteintech Group, Inc., Wuhan, China, 60268-1-IG, 1:5000), LC3-I/II (Proteintech Group, Inc., Wuhan, China, 10253-2-AP, 1:5000) and p-AMPK, AMPK, Bcl-2, Bax, Cleaved-caspase 7 (ImmunoWay Biotechnology, Beijing, China, YP0251, 1:5000) overnight at 4 °C and with secondary antibodies (AP-conjugated goat anti-rabbit or anti-mouse, 1:10,000) for 2 h. Densitometry was performed in ImageJ 2 within the linear range. Targets were normalized to β-actin (or to the corresponding total protein for phospho-target), then expressed relative to vehicle (0.1% DMSO = 1.0). Where indicated, ratios such as LC3-II/LC3-I and Bax/Bcl-2 were calculated per lane before statistics.

[6] = system: MCF-7 multicellular tumor spheroids; assay: 3D spheroid tumor model (calcein AM/PI); conditions: E10 1, 5 and 10 μM, 4 days
From the text: Three-dimensional (3D) cell culture provides an environment that allows cells to grow and interact with their surroundings in all spatial dimensions, closely mimicking the physiological conditions found in vivo [44]. […] To evaluate the long-term antitumor effects of E10 in a more physiologically relevant model, a 3D spheroid tumor model was established using MCF-7 breast cancer cells. Each spheroid was formed by approximately 2000 MCF-7 cells and cultured for 3 days to allow spheroid maturation. These spheroids were subsequently treated with varying concentrations of E10 (1, 5, and 10 μM) at 48-h intervals over a period of 4 days. For visualization, the multicellular tumor spheroids (MCTSs) were stained with calcein AM and propidium iodide (PI) in culture medium for 1.5 h. The live/dead cell distribution within the spheroids was then visualized using laser scanning confocal microscopy. […] This limited cell death is likely attributable to hypoxic and nutrient-deprived conditions resulting from excessive cell proliferation.
[…] MCF-7 cells were seeded into cell-repellent 96-well U-bottom plates (Sbio, Tokyo, Japan) at a density of 3000 cells per well and cultured for 72 h to promote spheroid formation. […] After treatment, spheroids were stained with 5 μM PI and 10 μM Calcein-AM, and observed under a fluorescence microscope (Olympus, Tokyo, Japan).

## CC1(C)C2=CC(=O)N(C(=O)C=Cc3cccc(C(F)(F)F)c3)CC(C)(C)C23CCC1C3 (centres unmarked) [E10, 5,5,9,9-Tetramethyl-3-(3-(3-(trifluoromethyl)phenyl)acryloyl)-4,5,6,7,8,9-hexahydro-5a,8-methanobenzo[d]azepin-2(3H)-one]
MCF-7 cells [1]
  effect on cell cycle: cell cycle arrest at the G0/G1 phase
MCF-7 cells [2]
  intracellular ROS levels: markedly increased
MCF-7 cells [3]
  mitochondrial membrane potential: concentration-dependent reduction in MMP
MCF-7 cells [4]
  MDC staining, autophagosome formation: significantly increased the number of punctate green fluorescence signals
MCF-7 cells [5]; E10 0.5, 1.0, 2.0 μM
  AMPK phosphorylation levels: increased
  mTOR phosphorylation levels: strongly decreased
  p62 expression: decrease
MCF-7 cells [5]; after E10 treatment
  LC3-I and LC3-II expression levels: up-regulated
MCF-7 cells [5]; compared with control
  Bax expression: higher levels
  Bcl-2 expression: down-regulated
MCF-7 cells [5]; dose-dependent
  cleaved caspase-7 expression: dramatically up-regulated
  p53 expression: dramatically up-regulated
MCF-7 cells [5]; increasing concentrations of E10 (0.5, 1.0, 2.0 μM)
  ratio of LC3-II/LC3-I: increased gradually
[6]
  viability and structural integrity of MCF-7 MCTSs: dose-dependent inhibitory effect
